Results from publication PMC6911004, “Fragment-based screening identifies molecules targeting the substrate-binding ankyrin repeat domains of tankyrase” (Scientific Reports, 2019).
“Also recorded” adds a separate entry of the source.

Target: T1, TNKS2 ARC4 (488–649) (Homo sapiens, UniProt Q9H2K2)
T1 construct: The cell was filled with TNKS2 ARC4 (488–649); His6-GST (cleaved yes); made in house; host or cells: E. coli BL21-CodonPlus (DE3)-RIL
T1 sequence (Q9H2K2 488-649): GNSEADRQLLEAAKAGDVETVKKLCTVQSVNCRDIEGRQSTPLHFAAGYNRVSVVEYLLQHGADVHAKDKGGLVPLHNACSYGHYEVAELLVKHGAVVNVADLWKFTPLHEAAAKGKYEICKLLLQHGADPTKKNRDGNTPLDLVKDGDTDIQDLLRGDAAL
Assay: Protein-observed 1H-15N HSQC NMR titration (chemical shift perturbation)
Type: binding
Settings: for 15N NMR / 15N HSQC chemical shift perturbations (CSPs): 15N-labelled TNKS2 ARC4
From the text: We next tested validated hits from both the DSF and NMR screens against TNKS2 ARC4 using protein-observed NMR. This included 16 compounds in total: 14 fragments identified by DSF and confirmed to bind TNKS2 ARC5 by both relaxation-edited and waterLOGSY methods and two unique fragments identified by NMR and confirmed to bind TNKS2 ARC4 by both ligand-observed NMR methods. We used the 3BP2 TBM peptide as a positive control. To directly identify fragment binding sites on the ARC, we performed a full backbone and partial side-chain assignment of TNKS2 ARC4, doubly labelled with ^15N and ^13C isotopes. The assignment details have been reported elsewhere. […] The different binding regimes may distinguish primary interaction hotspots that are engaged robustly when a peptide is first recruited (slow exchange) from secondary binding sites in the ARC that become occupied once primary binding hotspots are engaged; these may be more dynamic (fast exchange).
We then titrated compounds against ^15N-labelled TNKS2 ARC4, initially at protein:compound ratios of 1:1 and 1:3. […] We confirmed that the CSPs were not caused by pH changes during the titration by measuring the pH of the peptide and fragment stocks (at 3 mM) in assay buffer. Consistent with TBM-competitive binding of fragments 3 and 5, we identified several peaks that shifted in both fragment and 3BP2 TBM peptide titrations. […] However, the solubility of fragments 3 and 5 in assay buffer limited the maximum concentration achievable, and so complete saturation was not reached. This confounded affinity measurements and more extensive analyses of the fragment binding sites by protein-observed NMR.
^15N-labelled TNKS2 ARC4 (488–649) (300 μM final concentration; 5 μL of 3 mM stock) in NMR buffer (45 μL, 25 mM HEPES-NaOH pH 7.5, 100 mM NaCl, 1 mM TCEP, 10% D2O) was used as the baseline sample. Peptide titration samples (Table 6) were prepared by diluting the 16-mer 3BP2 peptide with NMR buffer (45 μL), then adding TNKS2 ARC4 (300 μM final concentration; 5 μL of 3 mM stock). Separate samples were prepared for each concentration point. Fragment titration samples (Table 7) were prepared by diluting fragments in NMR buffer (25 mM HEPES-NaOH pH 7.5, 100 mM NaCl, 1 mM TCEP, 10% D2O) and backfilling with DMSO to keep a constant DMSO concentration of 5%. ^15N-labelled TNKS2 ARC4 (300 μM final concentration; 5 μL of 3 mM stock) was added. Protein with 5% DMSO alone was used as the baseline. Separate samples were prepared for each concentration point. ^1H-^15N HSQC spectra were acquired over 3 h, with 64 scans and a spectrum width of 16.00 ppm for ^1H and 29.00 ppm for ^15N. The pH of the peptide and fragment stocks (at 3 mM) was confirmed to exclude the possibility that peak shifts were due to changes in pH during the titration.
Peaks that shifted were picked manually in each spectrum. The chemical shifts for each peak were measured and exported into Microsoft Excel, where the change in chemical shift from baseline was calculated for hydrogen and nitrogen shifts. The average Euclidean distance shifted (d) was then calculated using Eq. 2, weighting the different nuclei:2 d=√{1/2[δH2+(α.δN2)]},whereα=0.14
Values of d were plotted against ligand concentration in GraphPad Prism, and fitted with Eq. 3:3 Δδobs=Δδmax{([P]t+[L]t+Kd)−[([P]t+[L]t+Kd)^2−4[P]t[L]t]^1/2/2[P]t
Kd values were calculated for each peak that shifted individually. The mean of all shifting peaks was then calculated to give an apparent Kd value.

[1] = TNKS2 ARC4 300 μM, fragment up to 4800 μM, 5% DMSO

Row | Compound | 15N NMR / 15N HSQC chemical shift perturbations (CSPs) | Kd (TNKS2 ARC4 300 μM, fragment up to 4800 μM, 5% DMSO, read-out: NMR Kd (apparent, mean of shifting peaks)) | NMR Kd (apparent, mean of shifting peaks) [1]
1 | O=C(NCc1ccco1)c1ccc2nccnc2c1 [compound 9] | substantial CSPs; also recorded: significant CSPs | 1050 µM | 
2 | O=C(NCc1ccc(F)cc1)c1ccc2nccnc2c1 [compound 5] | significant CSPs; also recorded: substantial CSPs; also recorded: CSPs observed |  | no saturation
3 | O=C(NCc1ccco1)c1ccc(F)cc1 [compound 3] | significant CSPs; also recorded: substantial CSPs; also recorded: CSPs observed |  | no saturation
4 | LPHLQRSPPDGQSFRSW [3BP2 16-mer peptide, 16-mer TBM peptide derived from 3BP2, W added for A280, N-terminus acetylated, C-terminus amide-capped; positive control, reference compound] | significant chemical shift perturbations |  | 
